We go through two compounds from paper PMC11157491, “Novel Alaninamide Derivatives with Drug-like Potential for Development as Antiseizure and Antinociceptive Therapies—In Vitro and In Vivo Characterization” (ACS Chemical Neuroscience, 2024).

As usually defined, the fraction unbound is the share of the substance not bound to proteins or other matrix. By inhibition is commonly meant the share of the control response that was lost under treatment. In general, ED50 refers to the dose at which the effect has come halfway, by size or by number of responders.

Data set [1] can be described thus: PAMPA passive permeability. The format is in vitro ADME. To be noted: precoated PAMPA Plate System; for Papp: read-out: PAMPA—Pe ± SD. From the text: The precoated parallel artificial membrane permeability assay (PAMPA) was used to determine the passive mechanism of permeability.
Data set [2] concerns the target CYP3A4 (Homo sapiens, UniProt P08684). To be noted: 1 μM.
For data set [3], the system named is mice. In words: Grip strength test. The format is in vivo. To be noted: 50 mg/kg i.p., 30 min before test. Here is the method:
The grip strength test was performed just before the ivPTZ test to assess the acute effect of compounds 26 and 28 on neuromuscular strength.
In studies assessing the acute effect of compounds 26 and 28 on the ivPTZ seizure threshold and neuromuscular strength, the compounds were suspended in a 1% solution of Tween 80 and administered i.p., at a dose of 50 mg/kg of body weight, 30 min before the tests. The experimental procedures of the timed ivPTZ test and the grip strength test were described in detail elsewhere.[64]
Data from the ivPTZ test and the grip strength test were analyzed using Student’s t-test.
Figure S1. Acute effects of compound 26 (A) and 28 (B) on grip strength in mice. Both compounds were administered i.p. at a dose of 50 mg/kg, 30 min before the test. Control animals received vehicle. Data are presented as means ± SEM of grip strength expressed in mN/g of body weight (n = 10animals). The statistical significance was evaluated by a Student's t test (GraphPad Prism 8). […]
Behavioral tests were performed 24 h after the last PTZ injection. […] The statistical significance was evaluated by one-way ANOVA followed by the Tukey’s post hoc test: *p < 0.05, (GraphPad Prism 8). […]

In data set [4] the test system is HSA and AGP. In words: in vitro. To be noted: human, plasma.
Procedure: The plasma protein binding: human serum albumin (HSA) and α1-acid glycoprotein (AGP) was evaluated by the commercial TRANSIL^XL PPB assay.
The target of data set [5] is 5-HT2C (h) (Homo sapiens, UniProt P28335). Briefly: 5-HT2C agonist effect functional assay. The format is cell-based. To be noted: HEK293, human recombinant HEK-293 cell, read-out: % inhibition of control agonist response (5-HT2C agonist effect). Here is the method:
(§1) Importantly, sodium or calcium conductance is often associated with the pathophysiology of epilepsy as well as neuropathic pain.[46]−[50] Therefore, both sodium and calcium ion channels are well-established molecular targets for structurally diverse ASMs such as LCS, lamotrigine, carbamazepine, oxcarbazepine, etc.[51] Consequently, we carried out binding and/or functional studies toward the sodium channel (site 2) and calcium Cav1.2 channel at high concentrations (100 μM) of 26 and 28 (Table 5). […] Next, 26 and 28 due to the presence of the phenylpiperazine moiety, which is a well-recognized pharmacophore for serotoninergic receptor (5-HTxR) ligands,[52] were evaluated for their influence on 5-HT2CR, where stimulation plays a key role for the antiseizure activity of lorcaserin (one of the newest ASMs).[6]
(§2) Binding/functional studies were carried out commercially in Eurofins Laboratories (Poitiers, France) and Eurofins Panlabs Discovery Services Taiwan, Ltd. (New Taipei City, Taiwan) using testing procedures that were reported previously (for details, see Table S2).
(§3) Table S2. Radioligand binding and functional assays. […]
5-HT2C (agonist effect)
(§4) Assays were performed commercially in Eurofins Laboratories ( Poitiers, France) or Eurofins Panlabs Discovery Services
(§5) Taiwan, Ltd. (New Taipei City, Taiwan).

The test system of data set [6] is Na^+ channel (site 2). Briefly: Na+ channel (site 2) radioligand binding. To be noted: 100 μM, rat cerebral cortex. Here is the method:
as §1, §2, §3, §4, §5

For data set [7], the system named is mice. In words: 6 Hz (32 mA) psychomotor seizure model. To be noted: Mus musculus, ip; for responders at 100 mg/kg: 100 mg/kg i.p., 0.5 h; for ED50: mice, pretreatment 0.5 h. The format is in vivo. The text has this: Identification and profiling of new ASM candidate compounds are still largely based on predictive animal models of seizures/epilepsy, while a range of in silico and in vitro approaches (i.e., molecular modeling or high throughput screening, etc.) are increasingly used in the early stages of ASM discovery.[31] The Epilepsy Therapy Screening Program (ETSP) of the National Institute of Neurological Disorders and Stroke (NIH, Bethesda, MD) has enabled the discovery of several approved ASMs by focusing on the in vivo testing of compounds synthesized by both academic laboratories and industry.[32] The ETSP provides a broad panel of seizure tests (ca. 30 rodent models), but a subset of them is used for the initial screening of new compounds with potential antiseizure activity. The routinely used seizure models include: (i) the MES test, which is an experimental model of tonic–clonic seizures, (ii) the 6 Hz model (32 mA) of focal seizures, and (iii) the scPTZ model of generalized absence or myoclonic seizures.[33],[34] Consequently, in the current studies, all final compounds 21–36 and 45–48 were initially studied in the MES and the 6 Hz (32 mA) seizure models after intraperitoneal (i.p.) administration at a screening dose of 100 mg/kg in mice at a time point of 0.5 h (the screening group consisted of four mice, and the results obtained are summarized in Table S1).
These parameters were then used to calculate the protective indexes (PIs, PI = TD50/ED50), which describe the therapeutics window of potential drug candidates. The ED50, TD50, and PI values for the tested compounds together with data of their chemical prototypes KA-11 and KJ-5 and reference ASMs are summarized in Table 2.
The adult male Albino Swiss mice weighed between 22 and 26 g were used in the in vivo studies. They were housed under standardized housing conditions in colony cages and had free access to food as well as tap water. The animals were left to adapt under laboratory conditions for 7 days. All procedures involving animals and their care were performed in accordance with the current European Community and Polish legislation on animal experimentation.
In the initial screening studies, four mice per group were randomly assigned to each experimental group (each mouse was used only once). To evaluate the ED50 or TD50 values, four groups consisting of eight animals were injected with various doses of tested compounds. The protective indexes (PIs) for the compounds investigated and reference ASMs were calculated by dividing the TD50 value, as determined in the chimney test, by the respective ED50 value, as determined in the MES, scPTZ, or 6 Hz (32 or 44 mA) tests (PI = TD50/ED50). The PIs are a measure of the potential therapeutic window of the tested agent.
All substances were suspended in Tween 80 (1% aqueous solution) and administered i.p. as a single injection at a dose of 10 mL/kg. On each day of experimentation, fresh solutions were prepared. The detailed in vivo procedures are described elsewhere: the maximal electroshock seizure test (MES),[60] the subcutaneous pentylenetetrazole seizure test (scPTZ),[61] the 6 Hz psychomotor seizure model (32 and 44 mA),[62] and the chimney test.[63] The reference ASMs were purchased from commercial suppliers: VPA (Sigma-Aldrich, St. Louis, MO), LCS, and LEV (UCB Pharma, Braine l’Alleud, Belgium).

The mark [8] stands for this setting: four mice, read-out: protection in 6 Hz (32 mA) screening.
The mark [9] stands for this setting: read-out: 6 Hz (32 mA): number of mice protected/number of mice tested (converted).

Read-outs that look alike come from different tables or passages of the source.

Sequence of CYP3A4 (P08684 whole entry): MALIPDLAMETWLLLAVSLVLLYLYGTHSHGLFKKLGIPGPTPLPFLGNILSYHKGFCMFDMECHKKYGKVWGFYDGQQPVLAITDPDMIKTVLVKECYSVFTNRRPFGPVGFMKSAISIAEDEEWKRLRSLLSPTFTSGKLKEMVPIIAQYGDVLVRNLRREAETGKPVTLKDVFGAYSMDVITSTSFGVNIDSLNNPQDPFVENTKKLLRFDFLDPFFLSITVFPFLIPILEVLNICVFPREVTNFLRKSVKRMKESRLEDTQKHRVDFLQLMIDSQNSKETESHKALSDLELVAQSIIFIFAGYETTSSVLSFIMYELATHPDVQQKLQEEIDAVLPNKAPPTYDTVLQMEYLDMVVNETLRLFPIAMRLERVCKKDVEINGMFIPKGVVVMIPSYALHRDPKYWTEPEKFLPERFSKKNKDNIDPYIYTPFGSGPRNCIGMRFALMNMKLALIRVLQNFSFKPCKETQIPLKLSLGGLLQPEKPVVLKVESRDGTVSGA
Sequence of 5-HT2C (h) (P28335 33-458): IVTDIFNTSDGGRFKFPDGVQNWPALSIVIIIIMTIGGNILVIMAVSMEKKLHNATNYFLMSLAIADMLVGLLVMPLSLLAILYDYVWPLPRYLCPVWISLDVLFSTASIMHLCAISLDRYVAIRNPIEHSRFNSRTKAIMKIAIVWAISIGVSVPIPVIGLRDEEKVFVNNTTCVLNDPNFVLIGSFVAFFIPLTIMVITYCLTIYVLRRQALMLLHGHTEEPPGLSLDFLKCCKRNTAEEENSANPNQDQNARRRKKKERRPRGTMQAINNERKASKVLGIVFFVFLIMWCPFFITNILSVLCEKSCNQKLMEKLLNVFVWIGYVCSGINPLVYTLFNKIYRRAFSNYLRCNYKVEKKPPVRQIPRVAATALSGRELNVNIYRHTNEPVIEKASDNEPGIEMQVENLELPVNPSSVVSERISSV

With `CC(=O)NC(C)C(=O)N1CCN(c2cccc(C(F)(F)F)c2)CC1` (centres unmarked) [Compound 26, N-(1-oxo-1-(4-(3-(Trifluoromethyl)phenyl)piperazin-1-yl)propan-2-yl)acetamide], the “PAMPA—Pe ± SD” value in data set [1] is 4.51 10^–6 cm/s. For the same compound, the Papp in data set [1] worked out at 4.51 ± 0.61 ×10⁻⁶ cm/s. The “CYP3A4 activity (% of control ± SD)” value in data set [2] is 114.1 ± 8.7%. Moreover, the “neuromuscular strength (grip strength)” value in data set [3] is given as “Neither compound 26 nor 28 (50 mg/kg) significantly affect”. This compound gave a fraction unbound in data set [4] of 0.214. Further, the inhibition at 10 µM in data set [5] worked out at 0.5%. In addition, the “% inhibition of control specific binding” value in data set [6] was 4.5 (100) %. The responders at 100 mg/kg in data set [7] (setting [8]) and in data set [7] (setting [9]) was 100% throughout. Moreover, the ED50 in data set [7] was found to be 15.6 mg/kg.

As for `CC(=O)NC(C)C(=O)N1CCN(c2cccc(OC(F)(F)F)c2)CC1` (centres unmarked) [Compound 28, N-(1-oxo-1-(4-(3-(Trifluoromethoxy)phenyl)piperazin-1-yl)propan-2-yl)acetamide], in data set [1], the “PAMPA—Pe ± SD” value is 5.95 10^–6 cm/s and the Papp was 5.95 ± 0.51 ×10⁻⁶ cm/s. Further, the “CYP3A4 activity (% of control ± SD)” value in data set [2] is on record as 91.3 ± 12.7%. Also, the “neuromuscular strength (grip strength)” value in data set [3] is on record as “Neither compound 26 nor 28 (50 mg/kg) significantly affect”. This compound showed an unbound share (fraction unbound) in data set [4] of 0.17. Besides, the inhibition at 10 µM in data set [5] was determined as 0.1%. Also, the “% inhibition of control specific binding” value in data set [6] was “–6.9 (100) %”. In data set [7] (setting [8]), the responders at 100 mg/kg worked out at 100%. In data set [7] (setting [9]), the responders at 100 mg/kg is 100%. Further, in data set [7], the ED50 is 12.1 mg/kg.
